Data reported in patent US20040076974A1, “Liver necrosis predictive genes” (priority 2002, published 2004).
Values joined by “and” are separate entries in the source; they are usually repeats but may differ in a detail not shown here. Identical values can stand only once.

Tested on: toxicologically relevant rat genes (rat CT array)
Conditions: 24 h; dose 200; listed as BRB

`Brc1ccccc1` [bromobenzene] was tested, and the “3-hydroxyisobutyrate dehydrogenase expression (treatment/control)” value was 0.8751 and 1.339 and 0.6927, the “14-3-3 zeta expression (treatment/control)” value was 1.437 and 1.592 and the “25-DX expression (treatment/control)” value was 1.969 and 1.763 and 1.86. For the same compound, the “60S ribosomal protein L6 expression (treatment/control)” value was 2.093 and 1.63 and 1.941, the “Alpha-2-macroglobulin expression (treatment/control)” value was 0.5548 and 0.5467 and 0.459 and the “Apolipoprotein CIII expression (treatment/control)” value was 0.8126 and 0.7007. The “Argininosuccinate lyase expression (treatment/control)” value was 2.651 and 1.764 and 2.145, the “Bax (alpha) expression (treatment/control)” value was 1.536 and 1.414 and 1.327 and the “Beta-actin expression (treatment/control)” value was 2.486 and 1.816 and 2.608. For the same compound, the “Beta-tubulin, class I expression (treatment/control)” value was 2.668 and 1.782 and 2.339, the “Carbonyl reductase expression (treatment/control)” value was 1.678 and 1.035 and 1.375 and the “Cathepsin L, sequence 2 expression (treatment/control)” value was 2.896 and 1.549 and 2.344. For the same compound, the “Cofilin expression (treatment/control)” value was 2.923 and 2.064 and 2.935, the “DNA polymerase beta expression (treatment/control)” value was 1.369 and 1.206 and 1.307 and the “Dynamin-1 (D100) expression (treatment/control)” value was 0.8053 and 0.7635 and 0.8226. The “Elongation factor-1 alpha expression (treatment/control)” value was 2.054 and 1.728 and 1.8, the “Endogenous retroviral sequence, 5′ and 3′ LTR expression (treatment/control)” value was 1.854 and 1.585 and 2.582 and the “Enolase alpha expression (treatment/control)” value was 2.419 and 1.535 and 1.712. For the same compound, the “Epidermal growth factor expression (treatment/control)” value was 0.7593 and 0.7117 and 0.804, the “Fas antigen expression (treatment/control)” value was 0.9199 and 0.9142 and 1.12 and the “Glucose-regulated protein 78 expression (treatment/control)” value was 1.405 and 1.625 and 1.635. For the same compound, the “Hepatic lipase expression (treatment/control)” value was 0.569 and 0.6299 and 0.3937, the “ID-1 expression (treatment/control)” value was 1.9 and 1.248 and 1.715 and the “Integrin beta1 expression (treatment/control)” value was 1.457 and 0.9085 and 1.427. The “MAP kinase kinase expression (treatment/control)” value was 1.27 and 1.166 and 1.092, the “Matrin F/G expression (treatment/control)” value was 0.6546 and 0.8987 and 0.4635 and the “Matrix metalloproteinase-1 expression (treatment/control)” value was 1.585 and 1.263 and 1.628. The “Melanoma-associated antigen ME491 expression (treatment/control)” value was 1.388 and 0.9209 and 1.67, the “Monocyte chemotactic protein receptor (CCR2) expression (treatment/control)” value was 1.124 and 0.9935 and 1.064 and the “Multidrug resistant protein-2 expression (treatment/control)” value was 1.861 and 1.261 and 1.657. The “Nucleoside diphosphate kinase beta isoform expression (treatment/control)” value was 1.862 and 1.504 and 1.541, the “Organic anion transporter 3 expression (treatment/control)” value was 0.5569 and 0.821 and 0.6551 and the “Organic cation transporter 3 expression (treatment/control)” value was 1.241 and 0.9547 and 1.365. The “Ornithine decarboxylase expression (treatment/control)” value was 2.762 and 1.488 and 2.288, the “Phase-1 RCT-12 expression (treatment/control)” value was 1.003 and the “Phase-1 RCT-15 expression (treatment/control)” value was 2.352 and 2.155. For the same compound, the “Phase-1 RCT-36 expression (treatment/control)” value was 0.7233 and 0.7082 and 0.8303, the “Phase-1 RCT-37 expression (treatment/control)” value was 0.9672 and the “Phase-1 RCT-65 expression (treatment/control)” value was 1.706 and 1.856. The “Phase-1 RCT-68 expression (treatment/control)” value was 1.972 and 1.887, the “Phase-1 RCT-72 expression (treatment/control)” value was 1.442 and the “Phase-1 RCT-78 expression (treatment/control)” value was 0.6352 and 0.7712 and 0.5322. The “Phase-1 RCT-83 expression (treatment/control)” value was 0.6204 and 0.729, the “Phase-1 RCT-88 expression (treatment/control)” value was 0.7128 and 0.75 and 0.8397 and the “Phase-1 RCT-109 expression (treatment/control)” value was 1.895 and 1.651 and 2.226. The “Phase-1 RCT-117 expression (treatment/control)” value was 0.6683 and 0.7437, the “Phase-1 RCT-123 expression (treatment/control)” value was 0.7152 and 0.6828 and 0.8648 and the “Phase-1 RCT-137 expression (treatment/control)” value was 1.102 and 0.6023. For the same compound, the “Phase-1 RCT-152 expression (treatment/control)” value was 1.957 and 1.542 and 2.109, the “Phase-1 RCT-154 expression (treatment/control)” value was 0.9986 and 1.304 and the “Phase-1 RCT-168 expression (treatment/control)” value was 0.6821 and 0.7986 and 0.5665. For the same compound, the “Phase-1 RCT-180 expression (treatment/control)” value was 1.503, the “Phase-1 RCT-181 expression (treatment/control)” value was 0.8932 and 0.9997 and the “Phase-1 RCT-182 expression (treatment/control)” value was 1.301 and 0.688. For the same compound, the “Phase-1 RCT-189 expression (treatment/control)” value was 0.5887 and 0.552, the “Phase-1 RCT-191 expression (treatment/control)” value was 1.728 and 1.302 and 2.139 and the “Phase-1 RCT-192 expression (treatment/control)” value was 1.596. For the same compound, the “Phase-1 RCT-213 expression (treatment/control)” value was 1.467, the “Phase-1 RCT-214 expression (treatment/control)” value was 0.4191 and 0.7327 and 0.3835 and the “Phase-1 RCT-239 expression (treatment/control)” value was 0.6828. The “Phase-1 RCT-258 expression (treatment/control)” value was 0.9631 and 1.542, the “Phase-1 RCT-271 expression (treatment/control)” value was 0.5825 and 0.5279 and the “Phase-1 RCT-291 expression (treatment/control)” value was 1.199 and 0.6861. The “Phase-1 RCT-295 expression (treatment/control)” value was 2.141 and 1.945 and 1.916, the “Proliferating cell nuclear antigen gene expression (treatment/control)” value was 1.304 and 0.7642 and 1.223 and the “Pyruvate kinase, muscle expression (treatment/control)” value was 1.814 and 1.17 and 1.778. For the same compound, the “Ref-1 expression (treatment/control)” value was 2.201 and 1.238 and 2.06.
